The test system of one assay is Human glioma cells GL07. In words: Antitumor effect on human glioma cells (GL07) transplanted into nude mice. The format is in vivo. The following applies: Mus musculus, Glioma cell, 216 h, GL07, oral, 20 mg/kg once a day for 9 days, read-out: TGIR, % (tumor growth inhibition rate). On the procedure:
Antitumor Effect on Human Glioma Cells (GL07)
Human glioma cells GL07 (obtained from Central Laboratories for Experimental Animals) were transplanted into nude mice. When the tumor volume became about 100 mm^3, the mice were grouped. In this case, grouping was carried out so that each group consisted of four mice and the average tumor volume was even among the groups. The test compound was orally or intraperitoneally administered at a dose of 20 mg/kg to the test groups every day once a day for 9 days, while the medium was administered to the control group in the manner as in the test groups. The tumor growth inhibition rate (TGIR) was calculated as follows: The tumor growth inhibition rate (TGIR)=(1−Tx/Cx)×100 wherein Cx represents the volume of tumor at day x for the control group when the tumor volume at the day of the start of the administration was presumed to be 1; and Tx represents the volume of tumor for test compound administration groups.

The target of another assay is T1, human KDR (Homo sapiens, UniProt P35968).
T1 construct: expressed in transfected cells; host or cells: NIH 3T3 cells (Sawano A et al., Cell Growth & Differentiation 7, 213-221 (1996))
In words: Inhibitory activity against KDR phosphorylation by ELISA. The format is cell-based. The following applies: NIH 3T3 cells transfected with human KDR, VEGF 100 ng/ml. On the procedure: Measurement of Inhibitory Activity Against KDR Phosphorylation by ELISA
NIH 3T3 cells (Sawano A et al., Cell Growth & Differentation, 7, 213–221 (1996), “Flt-1 but not KDR/Flk-1 tyrosine kinase is a receptor for placenta growth factor, which is related to vascular endothelial growth factor”) prepared by transfection of human KDR were cultured in a DMEM medium containing 10% fetal calf serum (purchased from GIBCO BRL) within a 5% carbon dioxide incubator until 50 to 70% confluent. The harvested cells were inoculated into wells, containing the same medium, in a collagen-type one-coat 96-well flat-bottom plate in an amount of 1.5×10^4 per well, followed by cultivation at 37° C. overnight. The medium was then replaced by a DMEM medium containing 0.1% fetal calf serum. A solution of the test compound in dimethyl sulfoxide was added to each well, and the cultivation was continued at 37° C. for additional one hr. A human recombinant vascular endothelial growth factor (hereinafter abbreviated to “VEGF”) was added to a final concentration of 100 ng/ml, and the stimulation of cells was carried out at 37° C. for 2 min. The medium was removed, the cells were washed with phosphate buffered saline (pH 7.4), and 50 μl of a solubilization buffer (20 mM HEPES (pH 7.4), 150 mM NaCl, 0.2% Triton X-100, 10% glycerol, 5 mM sodium orthovanadylate, 5 mM disodium ethylenediaminetetraacetate, and 2 mM Na4P2O7) was then added thereto. The mixture was shaken at 4° C. for 2 hr to prepare a cell extract.
Separately, phosphate buffered saline (50 μl, pH 7.4) containing […] of anti-phospho-tyrosine antibody (PY20; purchased from Transduction Laboratories) was added to a microplate for ELISA (Maxisorp; purchased from NUNC), followed by standing at 4° C. overnight to form a solid phase on the wells. After washing of the plate, 300 μl of a blocking solution was added, followed by standing at room temperature for 2 hr to perform blocking. After washing, the whole quantity of the cell extract was transferred to the wells, and the plate was then allowed to stand at 4° C. overnight. After washing, an anti-KDR antibody (purchased from Santa Cruz) was allowed to react at room temperature for one hr, and, after washing, a peroxidase-labeled anti-rabbit Ig antibody (purchased from Amersham) was allowed to react at room temperature for one hr. After washing, a chromophoric substrate for peroxidase (purchased from Sumitomo Bakelite Co., Ltd.) was added thereto to initiate a reaction. After a suitable level of color development, a reaction termination solution was added to stop the reaction, and the absorbance at 450 nm was measured with a microplate reader. The KDR phosphorylation activity for each well was determined by presuming the absorbance with the addition of VEGF and without the addition of the medicament to be 100% KDR phosphorylation activity and the absorbance without the medicament and VEGF to be 0% KDR phosphorylation activity. The concentration of the test compound was varied on several levels, the inhibition (%) of KDR phosphorylation was determined for each case, and the concentration of the test compound necessary for inhibiting 50% of KDR phosphorylation (IC50) was calculated.
(In general: An ELISA detects its analyte on a solid surface through an enzyme-linked reagent.)

pIC50: −log10 of the molar value. A value given as a limit tells only on which side of the number the result lay.

The record followed here is US7169789B2 (Kirin Beer Kabushiki Kaisha, priority 1999, dated 2007).

T1 sequence (P35968 20-1356): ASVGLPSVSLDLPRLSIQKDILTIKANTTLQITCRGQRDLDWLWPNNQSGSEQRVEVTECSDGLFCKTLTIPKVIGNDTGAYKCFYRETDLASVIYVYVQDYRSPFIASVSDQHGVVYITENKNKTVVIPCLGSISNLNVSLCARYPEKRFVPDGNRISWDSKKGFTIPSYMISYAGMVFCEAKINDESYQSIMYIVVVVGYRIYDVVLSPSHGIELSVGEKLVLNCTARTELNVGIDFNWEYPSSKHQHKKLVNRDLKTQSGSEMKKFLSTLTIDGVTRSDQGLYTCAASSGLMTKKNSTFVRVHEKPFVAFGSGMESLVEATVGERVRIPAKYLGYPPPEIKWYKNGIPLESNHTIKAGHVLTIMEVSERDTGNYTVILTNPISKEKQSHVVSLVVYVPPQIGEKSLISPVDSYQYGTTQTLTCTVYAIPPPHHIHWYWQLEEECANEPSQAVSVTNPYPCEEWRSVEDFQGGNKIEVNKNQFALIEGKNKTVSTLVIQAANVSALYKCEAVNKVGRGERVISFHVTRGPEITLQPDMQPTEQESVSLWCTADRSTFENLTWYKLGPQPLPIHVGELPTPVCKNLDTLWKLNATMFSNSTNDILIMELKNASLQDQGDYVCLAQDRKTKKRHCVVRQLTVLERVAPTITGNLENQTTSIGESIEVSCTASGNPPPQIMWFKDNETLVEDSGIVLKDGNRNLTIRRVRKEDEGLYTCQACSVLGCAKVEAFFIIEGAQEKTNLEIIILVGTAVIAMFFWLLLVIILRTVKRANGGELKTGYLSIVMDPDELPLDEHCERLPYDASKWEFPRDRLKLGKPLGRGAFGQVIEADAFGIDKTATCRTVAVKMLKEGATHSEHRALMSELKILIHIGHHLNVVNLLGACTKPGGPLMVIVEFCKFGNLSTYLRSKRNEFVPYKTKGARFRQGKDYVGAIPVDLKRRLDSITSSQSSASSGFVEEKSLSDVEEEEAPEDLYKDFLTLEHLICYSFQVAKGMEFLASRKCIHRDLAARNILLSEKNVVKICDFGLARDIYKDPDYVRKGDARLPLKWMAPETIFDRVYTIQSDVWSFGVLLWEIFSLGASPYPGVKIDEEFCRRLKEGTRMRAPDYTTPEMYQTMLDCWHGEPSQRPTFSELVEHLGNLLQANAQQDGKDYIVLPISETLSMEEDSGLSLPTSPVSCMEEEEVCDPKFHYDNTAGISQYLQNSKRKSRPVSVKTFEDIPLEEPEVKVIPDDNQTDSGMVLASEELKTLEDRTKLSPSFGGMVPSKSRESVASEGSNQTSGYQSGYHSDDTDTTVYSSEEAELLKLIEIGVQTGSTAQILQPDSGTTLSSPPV

Regarding `CCCNC(=O)Nc1ccc(Oc2ncnc3cc(OCCN4CCOCC4)c(OC)cc23)cc1Cl` [Example 120, N-(2-Chloro-4-{[6-methoxy-7-(2-morpholinoethoxy)-4-quinazolinyl]oxy}phenyl)-N′-propylurea], the inhibition in vivo at 20 mg/kg in the assay on Human glioma cells GL07 worked out at 30%. Also, the pIC50 (usually −log10 of the IC50, conventionally taken in molar units) against human KDR is 8.41.

Regarding `COc1cc2c(Oc3ccc(NC(=O)Nc4ccc(F)cc4F)c(Cl)c3)ccnc2cc1OCCCN1CCOCC1` [Example 168, N-(2-chloro-4-{[6-methoxy-7-(3-morpholinopropoxy)-4-quinolyl]oxy}phenyl)-N′-(2,4-difluorophenyl)-urea], in the assay on Human glioma cells GL07, the inhibition in vivo at 20 mg/kg is 42%. This compound also showed a negative-log IC50 (pIC50) at human KDR of 8.40.

In the case of `CCCNC(=O)Nc1ccc(Oc2ccnc3cc(OCCN4CCN(C)CC4)c(OC)cc23)cc1Cl` [Example 148, N-[2-chloro-4-(6-methoxy-7-{[2-(4-methylpiperazino)ethoxy]-4-quinolyl}oxy)phenyl]-N′-propylurea], in the assay on Human glioma cells GL07, the inhibition in vivo at 20 mg/kg amounted to 54%. Also, the pIC50 against human KDR is 7.82.

As to `CCCNC(=O)Nc1ccc(Oc2ccnc3cc(OCCn4ccnn4)c(OC)cc23)cc1Cl` [Example 145, N-[2-chloro-4-(6-methoxy-7-{[2-(1H-1,2,3-triazol-1-yl)ethoxy]-4-quinolyl}oxy)phenyl]-N′-propylurea], in the assay on Human glioma cells GL07, the inhibition in vivo at 20 mg/kg worked out at 57%. For the same compound, on human KDR, the pIC50 was 9.10.

Turning to `COc1cc2c(Oc3ccc(NC(=O)Nc4ccc(F)cc4F)c(Cl)c3)ncnc2cc1OCCCN1CCOCC1` [Example 163, N-(2-chloro-4-{[6-methoxy-7-(3-morpholinopropoxy)-4-quinazolinyl]oxy}phenyl)-N′-(2,4-difluorophenyl)urea], the inhibition in vivo at 20 mg/kg in the assay with Human glioma cells GL07 is 52%. The same compound gave a pIC50 against human KDR of 8.85.

As for `COc1cc2c(Oc3ccc(NC(=O)N(C)C)c(Cl)c3)ncnc2cc1OCCCCN1CCOCC1` [Example 179, N′-(2-Chloro-4-{[6-methoxy-7-(4-morpholinobutoxy)-4-quinazolinyl]oxy}phenyl)-N,N-dimethylurea], the inhibition in vivo at 20 mg/kg in the assay with Human glioma cells GL07 worked out at 33%. At human KDR, this compound had a pIC50 of less than 6.00.

Take `COc1cc2ncnc(Oc3ccc(NC(=O)N(C)c4ccc(Cl)cc4)c(Cl)c3)c2cc1OC` [Example 115, N′-{2-Chloro-4-[(6,7-dimethoxy-4-quinazolinyl)oxy]phenyl}-N-(4-chlorophenyl)-N-methylurea]: the inhibition in vivo at 20 mg/kg in the assay with Human glioma cells GL07 was 74%. On human KDR, the pIC50 was less than 6.00.

Consider `CCCNC(=O)Nc1ccc(Oc2ncnc3cc(OCc4ccncc4)c(OC)cc23)cc1Cl` [Example 123, N-(2-Chloro-4-{[6-methoxy-7-(4-pyridylmethoxy)-4-quinazolinyl]oxy}phenyl)-N′-propylurea], for which the inhibition in vivo at 20 mg/kg in the assay on Human glioma cells GL07 worked out at 31%. Besides, the negative-log IC50 (pIC50) against human KDR was 8.05.

On to `COc1cc2c(Oc3ccc(NC(=O)Nc4ccc(F)cc4F)c(Cl)c3)ccnc2cc1OCc1ccncc1` [Example 186, N-(2-chloro-4-{[6-methoxy-7-(4-pyridylmethoxy)-4-quinolyl]oxy}phenyl)-N′-(2,4-difluorophenyl)urea], for which the inhibition in vivo at 20 mg/kg in the assay with Human glioma cells GL07 came to 47%. Besides, on human KDR, the pIC50 is 8.20.

With `COc1cc2c(Oc3ccc(NC(=O)Nc4ccc(F)cc4F)c(Cl)c3)ncnc2cc1OCc1ccncc1` [Example 161, N-(2-Chloro-4-{[6-methoxy-7-(4-pyridylmethoxy)-4-quinazolinyl]oxy}phenyl)-N′-(2,4-difluorophenyl)urea], the inhibition in vivo at 20 mg/kg in the assay on Human glioma cells GL07 turned out to be 39%. The pIC50 on human KDR is 8.41.

Turning to `COc1cc2c(Oc3ccc(NC(=O)N(C)C)c(Cl)c3)ncnc2cc1OCc1ccncc1` [Example 180, N′-(2-Chloro-4-{[6-methoxy-7-(4-pyridylmethoxy)-4-quinazolinyl]oxy}phenyl)-N,N-dimethylurea], in the assay on Human glioma cells GL07, the inhibition in vivo at 20 mg/kg is 45%. The pIC50 against human KDR was less than 6.00.

For the compound `CCCNC(=O)Nc1ccc(Oc2ncnc3cc(OCCCSc4nnnn4C)c(OC)cc23)cc1Cl` [Example 134, N-{2-Chloro-4-[(6-methoxy-7-{3-[(1-methyl-1H-1,2,3,4-tetrazol-5-yl)thio]propoxy}-4-quinazolinyl)-oxy]phenyl}-N′-propylurea], the inhibition in vivo at 20 mg/kg in the assay with Human glioma cells GL07 is 29%. In addition, the pIC50 against human KDR is 8.30.

Regarding `COc1cc2c(Oc3ccc(NC(=O)Nc4ccc(F)cc4F)c(Cl)c3)ccnc2cc1OCc1cccnc1` [Example 169, N-(2-chloro-4-{[6-methoxy-7-(3-pyridylmethoxy)-4-quinolyl]oxy}phenyl)-N′-(2,4-difluorophenyl)urea], the inhibition in vivo at 20 mg/kg in the assay on Human glioma cells GL07 amounted to 55%. Further, on human KDR, the pIC50 was 8.43.

For the compound `CCCNC(=O)Nc1ccc(Oc2ccnc3cc(OCCCCCn4ccnn4)c(OC)cc23)cc1Cl` [Example 159, N-{2-chloro-4-[(6-methoxy-7-{[5-(1H-1,2,3-triazol-1-yl)pentyl]oxy}-4-quinolyl)oxy]phenyl}-N′-propylurea], in the assay with Human glioma cells GL07, the inhibition in vivo at 20 mg/kg stood at 40%. Moreover, on human KDR, the pIC50 is 8.72.

With `CCCNC(=O)Nc1ccc(Oc2ncnc3cc(OC)c(OCc4ccccn4)cc23)cc1Cl` [Example 138, N-(2-Chloro-4-{[7-methoxy-6-(2-pyridylmethoxy)-4-quinazolinyl]oxy}phenyl)-N′-propylurea], the inhibition in vivo at 20 mg/kg in the assay on Human glioma cells GL07 was determined as 21%. The compound further showed a pIC50 at human KDR of 7.40.

As for `CCCNC(=O)Nc1ccc(Oc2ncnc3cc(OC)c(OCCN4CCN(C)CC4)cc23)cc1Cl` [Example 136, N-[2-Chloro-4-({7-methoxy-6-[2-(4-methylpiperazino)ethoxy]-4-quinazolinyl}oxy)phenyl]-N′-propylurea], the inhibition in vivo at 20 mg/kg in the assay with Human glioma cells GL07 was 23%. Further, on human KDR, the pIC50 is 6.80.

On to `COc1ccccc1NC(=O)Nc1ccc(Oc2ncnc3cc(OC)c(OC)cc23)c(C)c1` [Example 101, N-{4-[(6,7-Dimethoxy-4-quinazolinyl)oxy]-3-methylphenyl}-N′-(2-methoxyphenyl)urea], for which the inhibition in vivo at 20 mg/kg in the assay with Human glioma cells GL07 came out at 44%. The compound also had a negative logarithm of the IC50 (pIC50) against human KDR of 8.52.

As for `CCNC(=O)Nc1ccc(Oc2ncnc3cc(OCCCN4CCCCC4)c(OC)cc23)cc1Cl` [Example 185, N-(2-chloro-4-{[6-methoxy-7-(3-piperidinopropoxy)-4-quinazolinyl]oxy}phenyl)-N′-ethylurea], the inhibition in vivo at 20 mg/kg in the assay on Human glioma cells GL07 turned out to be 59%. On human KDR, this compound showed a pIC50 of 9.30.

`COc1cc2c(Oc3ccc(NC(=O)N(C)C)c(Cl)c3)ncnc2cc1OCCCN(C)CCO` [Example 183, N′-{2-Chloro-4-[(7-{3-[(2-hydroxyethyl)-(methyl)amino]propoxy}-6-methoxy-4-quinazolinyl)oxy]-phenyl}-N,N-dimethylurea]: in the assay on Human glioma cells GL07, the inhibition in vivo at 20 mg/kg was determined as 22%. Further, the pIC50 on human KDR is less than 6.00.

For the compound `CCCNC(=O)Nc1ccc(Oc2ccnc3cc(OCCCn4ccnn4)c(OC)cc23)cc1Cl` [Example 153, N-[2-chloro-4-(6-methoxy-7-{[3-(1H-1,2,3-triazol-1-yl)propoxy]-4-quinolyl}oxy)phenyl]-N′-propylurea], the inhibition in vivo at 20 mg/kg with Human glioma cells GL07 is 53%. Besides, the pIC50 on human KDR was 8.82.

`CCCNC(=O)Nc1ccc(Oc2ccnc3cc(OCCN4CCOCC4)c(OC)cc23)cc1Cl` [Example 144, N-(2-chloro-4-{[6-methoxy-7-(2-morpholinoethoxy)-4-quinolyl]oxy}phenyl)-N′-propylurea]: the inhibition in vivo at 20 mg/kg with Human glioma cells GL07 is 56%. The compound further gave a negative-log IC50 (pIC50) against human KDR of 8.80.
